The values that follow come from patent US7141590B2, “Pharmaceutical uses and synthesis of nicotinanilide-N-oxides” (UCB SA, priority 2000, dated 2006).

“And” between values parts separate entries of the source, which are not always exact repeats. Equal entries are not always repeated. Where only a bound is given, the exact number is not on record here.

In test [1] the target is T1, human CXCR2 (IL8RB) chemokine receptor (Homo sapiens, UniProt P25025).
T1 construct: host or cells: CHO cells
T1 sequence (P25025 1-360): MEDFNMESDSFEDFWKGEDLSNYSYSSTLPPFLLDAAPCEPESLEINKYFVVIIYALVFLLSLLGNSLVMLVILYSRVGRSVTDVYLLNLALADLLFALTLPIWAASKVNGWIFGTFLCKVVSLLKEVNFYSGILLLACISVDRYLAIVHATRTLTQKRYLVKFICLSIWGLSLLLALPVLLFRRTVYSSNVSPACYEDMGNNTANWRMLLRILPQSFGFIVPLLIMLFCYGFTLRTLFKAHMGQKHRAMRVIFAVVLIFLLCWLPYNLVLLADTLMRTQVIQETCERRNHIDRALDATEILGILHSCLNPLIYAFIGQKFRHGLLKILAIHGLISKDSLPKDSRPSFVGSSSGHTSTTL
Nature of the test: Panlabs CXCR2 filtermat binding assay ([125I]Interleukin-8). To be noted: 1 h, screened at 10 μM, read-out: CXCR2 specific binding (%). On the procedure: Selected compounds were screened by Panlabs (Bothell Wash.) using their CXCR2 filtermat binding assay. This assay measures binding of [^125I]Interleukin-8 to human interleukin-CXCR2 (IL8RB) receptors and is also described in Ahuja, S. K. and Murphy, P. M., J. Biol. Chem. 271:20545–20550, 1996. In summary, CHO cells stably transfected with a plasmid encoding the human CXCR2 (IL8RB) chemokine receptor were used to prepare membranes in modified HEPES pH 7.4 buffer. A 2 μg aliquot of membrane was incubated with 15 pM [^125I]Interleukin-8 for 60 minutes at room temperature. Non-specific binding was estimated in the presence of 10 nM interleukin-8. Membranes were filtered and washed 3 times and the filters were counted to determine [^125I]Interleukin-8 specifically bound. Compounds were screened at 10 μM and results are reported in terms of Specific Binding (%) in Tables 3–5.
This assay measures binding of [^125I]Interleukin-8 to human interleukin-CXCR2 (IL8RB) receptors. See Ahuja, S. K. and Murphy, P. M., J. Biol. Chem. 271: 20545–20550, 1996, for details. In brief, CHO cells stably transfected with a plasmid encoding the human CXCR2 (IL8RB) chemokine receptor were used to prepare membranes in modified HEPES pH 7.4 buffer using standard techniques. A 2 μg aliquot of membrane was incubated with 15 pM [^125I]Interleukin-8 for 60 minutes at room temperature. Non-specific binding was estimated in the presence of 10 nM interleukin-8. Membranes were filtered and washed 3 times and the filters were counted to determine [^125I]Interleukin-8 specifically bound. Compounds were screened at 10 μM, with the results reported in Table 6 (row titled “CXCR2”) in terms of specific binding (%).

For test [2], the target named is T2, human chemokine CCR5 receptor (Homo sapiens, UniProt P51681).
T2 construct: host or cells: CHO-K1-p242-CCR5 cells
T2 sequence (P51681 whole entry): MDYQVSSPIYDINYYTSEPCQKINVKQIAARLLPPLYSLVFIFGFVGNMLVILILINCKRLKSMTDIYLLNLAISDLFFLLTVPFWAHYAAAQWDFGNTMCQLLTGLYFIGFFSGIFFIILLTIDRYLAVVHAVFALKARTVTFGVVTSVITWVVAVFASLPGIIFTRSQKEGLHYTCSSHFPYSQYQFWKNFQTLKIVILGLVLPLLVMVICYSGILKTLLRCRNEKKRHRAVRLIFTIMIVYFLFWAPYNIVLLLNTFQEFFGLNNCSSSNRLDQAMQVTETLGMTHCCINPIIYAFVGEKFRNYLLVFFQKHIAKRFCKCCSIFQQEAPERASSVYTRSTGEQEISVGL
Nature of the test: CCR5 assay ([125I]MIP-1β binding). To be noted: 2 h; screened at 10 μM; Panlabs; read-out: CCR5 specific binding (%). As to the method:
This assay measures the binding of [^125I]MIP-1β to human chemokine CCR5 receptors. See Samson, M., et al., J. Biol. Chem. 272:24934–24941, 1997. In brief, CHO-K1-p242-CCR5 cells stably transfected with a plasmid encoding the human chemokine CCR5 receptor were used to prepare membranes in modified HEPES buffer at pH 7.4 using standard techniques. A 1 μg aliquot was incubated with 0.1 nM [^125I]MIP-1β for 120 minutes at 25° C. Non-specific binding was estimated in the presence of 0.1 μM MIP-1β. Membranes were filtered and washed 3 times and filters were counted to determine [^125I]MIP-1β specifically bound. Compounds were screened at 10 μM. The data obtained from this assay is reported in Table 6 (row titled “CCR5”), in terms of specific binding (%).

For test [3], the target named is T3, human CXCR1 (IL8RA) chemokine receptor (Homo sapiens, UniProt P25024).
T3 construct: host or cells: CHO cells
T3 sequence (P25024 1-350): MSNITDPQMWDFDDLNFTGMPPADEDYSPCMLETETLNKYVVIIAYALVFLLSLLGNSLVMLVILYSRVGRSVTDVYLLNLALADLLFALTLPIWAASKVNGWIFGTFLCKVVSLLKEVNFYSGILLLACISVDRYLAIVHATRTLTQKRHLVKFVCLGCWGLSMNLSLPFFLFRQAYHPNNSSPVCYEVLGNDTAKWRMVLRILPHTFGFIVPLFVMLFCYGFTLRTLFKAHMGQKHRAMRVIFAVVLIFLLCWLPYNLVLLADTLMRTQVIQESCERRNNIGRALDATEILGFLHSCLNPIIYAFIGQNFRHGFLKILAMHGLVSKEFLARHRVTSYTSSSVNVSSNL
The test can be described thus: CXCR1 assay ([125I]Interleukin-8 binding). To be noted: screened at 10 μM; Panlabs; read-out: CXCR1 specific binding (%). As to the method:
This assay measures binding of [^125I]Interleukin-8 to human interleukin-CXCR1 (ILR8A) receptors. See Ahuja, S. K. and Murphy, P. M. J. Biol. Chem. 271:20545–20550, 1996 for details. In brief, CHO cells stably transfected with a plasmid encoding the human CXCR1 (IL8RA) chemokine receptor were used to prepare membranes in modified HEPES pH 7.4 buffer using standard techniques. A 5 μg aliquot of membrane was incubated with 8 pM [^125I]Interleukin-8 for 60 minutes at room temperature. Non-specific binding was estimated in the presence of 10 nM interleukin-8. Membranes were filtered and washed 3 times and the filters were counted to determine [^125I]Interleukin-8 specifically bound. Compounds were screened at 10 μM, with the data reported in Table 6 (row titled “CXCR1”) in terms of specific binding (%).

For test [4], the target named is T4, human neuropeptide Y1 (NPY1) receptors (Homo sapiens, UniProt P25929).
T4 construct: host or cells: SK-N-MC (human neuroblastoma) cells
T4 sequence (P25929 1-384): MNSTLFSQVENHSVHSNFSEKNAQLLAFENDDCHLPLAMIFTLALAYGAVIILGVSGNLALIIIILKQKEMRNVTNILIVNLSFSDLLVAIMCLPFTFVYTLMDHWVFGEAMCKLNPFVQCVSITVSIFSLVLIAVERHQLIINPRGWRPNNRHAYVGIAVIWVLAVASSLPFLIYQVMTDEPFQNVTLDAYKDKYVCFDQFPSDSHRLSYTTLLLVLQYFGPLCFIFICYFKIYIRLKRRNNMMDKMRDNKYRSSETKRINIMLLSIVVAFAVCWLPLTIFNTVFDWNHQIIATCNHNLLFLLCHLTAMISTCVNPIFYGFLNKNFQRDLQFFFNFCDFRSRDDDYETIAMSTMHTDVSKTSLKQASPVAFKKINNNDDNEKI
Nature of the test: NPY1 assay ([125I]Peptide YY binding, SK-N-MC cells). The conditions noted are these: screened at 10 μM; Panlabs. On the procedure: This assay measures binding of [^125I]Peptide YY (PYY) to human neuropeptide Y1 (NPY1) receptors. See Fuhlendorff, J., et al. Proc. Natl Acad. Sci. USA 87:182–186, 1990 and Sheikh, S. P., et al. J. Biol. Chem. 264: 6648–6654, 1989. In brief, SK-N-MC (human neuroblastoma) cells were used in modified HBSS pH 7.4 buffer using standard techniques. The cells (10^6) were incubated with 12.5 pM [^125I]PYY for 45 minutes at 25° C. […] Cells were centrifuged and pellets were counted to determine [^125I]PYY specifically bound. Compounds were screened at 10 μM, with the results shown in Table 6 (row titled “NPY1”), reported in terms of specific binding (%).

The subject of the next test is somatostatin receptors. The test can be described thus: Somatostatin assay ([125I]tyr1 Somatostatin binding, AtT-20 membranes). Set-up: species or system mouse. The conditions noted are these: screened at 10 μM; Panlabs. As to the method:
This assay measures binding of [^125I]tyr^1 Somatostatin to somatostatin receptors. See Thermos, K. and Reisine, T. Mol. Pharmacol. 33:370–377, 1988, and Srikant, C. B. and Heisler, S., Endocrinology 117:271–278, 1985. In brief, AtT-20 (mouse pituitary) cells were used to prepare membranes in modified Tris-HCl pH 7.5 buffer using standard techniques. A 200 μg aliquot of membrane was incubated with 0.04 nM [^125I]tyr^1 Somatostatin for 60 minutes at 25° C. Non-specific binding was estimated in the presence of 1 μM somatostatin-14. Membranes were filtered and washed 3 times and the filters were counted to determine [^125I]tyr^1 Somatostatin specifically bound. Compounds were screened at 10 μM, with the data reported in Table 6 (row titled “Somat.”) in terms of specific binding (%).

The target of test [5] is T1, human CXCR2 (IL8RB) chemokine receptor. To be noted: CXCR2 reference data; cited from earlier work.
Test [6] addresses T3, human CXCR1 (IL8RA) chemokine receptor. To be noted: CXCR1 reference data; cited from earlier work.

On to `O=C(Nc1ccc(F)c(F)c1)c1ccc(Cl)[n+]([O-])c1` [drawing 135], for which the remaining activity at 10 µM in test [1] was more than 40%; in test [2], not above 40%; in test [3] it was not above 40%.
With `O=C(Nc1ccc(F)cc1)c1ccc(S(=O)(=O)Cc2ccccc2)[n+]([O-])c1` [drawing 133], the values for the remaining activity at 10 µM in test [1], in test [2] and in test [3] were more than 40%, not above 40% and not above 40%, respectively. Also, the “NPY1 specific binding (%)” value in test [4] was “* (“*” indicates a value of less than or equal to 40)”. For the same compound, the “Somat. specific binding (%)” value in the test on somatostatin receptors was “* (“*” indicates a value of less than or equal to 40)”.
Turning to `CCS(=O)(=O)c1ccc(C(=O)Nc2ccc(F)cc2)c[n+]1[O-]` [drawing 131], the figures for the remaining activity at 10 µM in test [1], in test [2] and in test [3] were more than 40%, more than 40% and not above 40%, respectively. Also, in test [4], the “NPY1 specific binding (%)” value is on record as “** (“**” indicates a value of greater than 40)”. Further, the “Somat. specific binding (%)” value in the test on somatostatin receptors was “* (“*” indicates a value of less than or equal to 40)”.
Take `CCCS(=O)(=O)c1ccc(C(=O)Nc2ccc(F)cc2)c[n+]1[O-]` [drawing 132]: the values for the remaining activity at 10 µM in test [1], in test [2] and in test [3] were more than 40%, more than 40% and not above 40%, respectively. Further, in test [4], the “NPY1 specific binding (%)” value is “** (“**” indicates a value of greater than 40)”. The “Somat. specific binding (%)” value in the test with somatostatin receptors is “* (“*” indicates a value of less than or equal to 40)”.
`O=C(Nc1ccc(F)cc1)c1ccc(S(=O)(=O)c2ccccc2)[n+]([O-])c1` [drawing 130]: the remaining activity at 10 µM in test [1] is more than 40%; in test [2] it was not above 40%; in test [3], more than 40%. In addition, the “NPY1 specific binding (%)” value in test [4] was “* (“*” indicates a value of less than or equal to 40)”. Besides, the “Somat. specific binding (%)” value in the test on somatostatin receptors is on record as “* (“*” indicates a value of less than or equal to 40)”.
Consider `CS(=O)(=O)c1ccc(C(=O)Nc2ccc(F)cc2)c[n+]1[O-]` [drawing 129], for which the remaining activity at 10 µM in test [1], in test [2] and in test [3] was more than 40% each time. Further, the “NPY1 specific binding (%)” value in test [4] is given as “** (“**” indicates a value of greater than 40)”. Moreover, in the test on somatostatin receptors, the “Somat. specific binding (%)” value is reported as “** (“**” indicates a value of greater than 40)”.
Turning to “GROα (or MGSA): Growth Regulatory Oncogene α; Melanoma Growth Stimulatory Activity; CXC chemokine”, in test [5], the IC50 was 0.098 nM; the Ki is 0.098 nM and 0.068 nM; the nH is 0.9. Moreover, the IC50 in test [6] is more than 10000 nM.
Turning to `O=C(Nc1ccc(F)cc1)c1ccc(S(=O)(=O)C2CCCC2)[n+]([O-])c1` [drawing 134], the results for the remaining activity at 10 µM in test [1], in test [2] and in test [3] were more than 40%, more than 40% and not above 40%, respectively. Also, in test [4], the “NPY1 specific binding (%)” value is “* (“*” indicates a value of less than or equal to 40)”. Besides, the “Somat. specific binding (%)” value in the test on somatostatin receptors is “* (“*” indicates a value of less than or equal to 40)”.
For `O=C(Nc1ccc(F)cc1)c1ccc(Cl)[n+]([O-])c1` [drawing 128], the remaining activity at 10 µM in test [1] and in test [3] was more than 40% in each case. Moreover, in test [4], the “NPY1 specific binding (%)” value was “* (“*” indicates a value of less than or equal to 40)”. In the test on somatostatin receptors, the “Somat. specific binding (%)” value was “* (“*” indicates a value of less than or equal to 40)”.
For the compound “Interleukin-8: CXC chemokine; standard reference agent used in CXCR1 and CXCR2 binding assays”, in test [5], the IC50 is 0.035 nM, the inhibition constant Ki is 0.024 nM and the nH is reported as 0.7. In test [6], the IC50 was 0.035 nM, the Ki is 0.007 nM and the nH is on record as 1.0.
On to `O=C(Nc1ccc(F)cc1)c1cc(Cl)c(Cl)[n+]([O-])c1` [drawing 136], for which the figures for the remaining activity at 10 µM in test [1], in test [2] and in test [3] were more than 40%, not above 40% and more than 40%, respectively. The “Somat. specific binding (%)” value in the test on somatostatin receptors is listed as “* (“*” indicates a value of less than or equal to 40)”.

One may read the IC50 as the point on the concentration scale where inhibition reaches its midpoint. Usually Ki stands for a measure of affinity in units of concentration, obtained from inhibition or displacement.
